Experimental data taken from ChEMBL document CHEMBL6114999, “Natural pyrrolo[1,2-a]quinazolinone derivatives: Design, synthesis, characterization, and bio-evaluation as novel antiviral agents” (Eur J Med Chem, 2025).
Calls of active or inactive are those of the source. The calls are words filed in the database; no cut-off is given here.

What was measured:
[1] = Cytotoxicity against human HEp-2 cells incubated for 48 hrs by MTT assay; type: toxicity, cell-based
Coxsackievirus B3 [2] = assay: Antiviral activity against CVB3 infected in HEp-2 cells assessed as inhibition of virus-induced cell death at 100 uM incubated for 48 hrs by MTT assay relative to control; type: functional; settings: for inhibition at 100 µM: Enterovirus B, HEp-2, 48 h; for inhibition (INH): 48 h, 100 µM
Coxsackievirus B3 [3] = assay: Antiviral activity against CVB3 infected in HEp-2 cells assessed as inhibition of virus-induced cell death at 50 uM incubated for 48 hrs by MTT assay relative to control; type: functional; settings: Enterovirus B
[4] = Selectivity index, ratio of CC50 for cytotoxicity against human RD cells to EC50 for antiviral activity against EV71 infected in human RD cells; type: toxicity, cell-based; settings: read-out: Ratio CC50/EC50
Coxsackievirus B3 [5] = assay: Antiviral activity against CVB3 infected in HEp-2 cells assessed as inhibition of virus-induced cell death at 25 to 100 uM incubated for 48 hrs by MTT assay; type: functional, organism-based; settings: dose 25-100 µM
Coxsackievirus B3 [6] = assay: Antiviral activity against CVB3 infected in HEp-2 cells assessed as inhibition of virus-induced cell death at 25 uM incubated for 48 hrs by MTT assay relative to control; type: functional; settings: Enterovirus B
Enterovirus [7] = assay: Antiviral activity against EV71 infected in human RD cells assessed as protection from virus-induced cytopathogenicity incubated for 48 hrs by MTT assay; type: functional, organism-based; settings: Enterovirus, 71, RD
Enterovirus [8] = assay: Antiviral activity against EV71 infected in human RD cells assessed as inhibition of virus-induced cell death at 25 to 100 uM incubated for 48 hrs by MTT assay; type: functional, organism-based; settings: 71, dose 25-100 µM
Coxsackievirus B3 [9] = assay: Antiviral activity against CVB3 infected in HEp-2 cells assessed as protection from virus-induced cytopathogenicity incubated for 48 hrs by MTT assay; type: functional, organism-based; settings: Enterovirus B, HEp-2, 48 h
[10] = Cytotoxicity against human RD cells incubated for 48 hrs by MTT assay; type: toxicity, cell-based
Enterovirus [11] = assay: Antiviral activity against EV71 infected in human RD cells assessed as inhibition of virus-induced cell death at 50 uM incubated for 48 hrs by MTT assay relative to control; type: functional; settings: Enterovirus, 71, RD
Enterovirus [12] = assay: Antiviral activity against EV71 infected in human RD cells assessed as inhibition of virus-induced cell death at 100 uM incubated for 48 hrs by MTT assay relative to control; type: functional, 71; settings: for inhibition at 100 µM: Enterovirus, 71, RD
Enterovirus [13] = assay: Antiviral activity against EV71 infected in human RD cells assessed as inhibition of virus-induced cell death at 25 uM incubated for 48 hrs by MTT assay relative to control; type: functional; settings: Enterovirus, 71, RD
[14] = Selectivity index, ratio of CC50 for cytotoxicity against HEp-2 cells to EC50 for antiviral activity against CVB3 infected in HEp-2 cells; type: toxicity, cell-based; settings: human, read-out: Ratio CC50/EC50

| Structure (SMILES) | CC50 at 48 h [1] [µM] | inhibition at 100 µM (Coxsackievirus B3 [2]) [%] | inhibition at 50 µM (Coxsackievirus B3 [3]) [%] | selectivity ratio [4] | antiviral activity call (active/inactive) (Coxsackievirus B3 [5]) | inhibition at 25 µM (Coxsackievirus B3 [6]) [%] | EC50 (Enterovirus [7]) [µM] | inhibition (Enterovirus [8]) | EC50 (Coxsackievirus B3 [9]) [µM] | CC50 at 48 h [10] [µM] | inhibition at 50 µM (Enterovirus [11]) [%] | inhibition at 100 µM (Enterovirus [12]) [%] | inhibition at 25 µM (Enterovirus [13]) [%] | inhibition (INH) (Coxsackievirus B3 [2]) [%] | selectivity ratio [14] | Imax (Enterovirus [12]) [%] |
| --- | --- | --- | --- | --- | --- | --- | --- | --- | --- | --- | --- | --- | --- | --- | --- | --- |
| COC(=O)C(CCSC)NC(=O)C12CCC(=O)N1c1ccc(Cl)cc1C(=O)N2 (stereo not drawn) | 214 | 58.8 | 49.9 | 4.4 | Active | 29.8 | 53.4 | Active | 60.1 | 235 | 58.8 | 58.7 | 50.3 | – | – | – |
| COc1cc(CNC(=O)C23CCC(=O)N2c2ccc(Cl)cc2C(=O)N3)ccc1O (stereo not drawn) | 188 | 87.3 | 30.7 | 5.9 | Active | 48.9 | 27.2 | Active | 17.4 | 160 | 81.3 | 97.5 | 67.5 | 92.3 | 10.8 | 97.48 |
| CC(NC(=O)C12CCC(=O)N1c1ccccc1C(=O)N2C)c1ccccc1 (stereo not drawn) | 223 | – | – | – | – | – | – | – | – | 234 | – | – | – | – | – | – |
| CC(NC(=O)C12CCC(=O)N1c1ccccc1C(=O)N2)c1ccccc1 (stereo not drawn) | 205 | – | – | 7.9 | – | – | 32.4 | Active | – | 256 | – | – | – | – | – | – |
| COC(=O)C(Cc1c[nH]c2ccccc12)NC(=O)C12CCC(=O)N1c1ccc(Cl)cc1C(=O)N2 (stereo not drawn) | 171 | 63.7 | 45 | 6.4 | Active | 36.6 | 24.8 | Active | 55.6 | 158 | 75.3 | 74 | 60.6 | – | 3.1 | – |
| CN1C(=O)c2ccccc2N2C(=O)CCC12C(=O)NCCS(C)(=O)=O (stereo not drawn) | 205 | 55.2 | 46.6 | – | Active | 38.9 | – | – | 64.5 | 251 | 56.7 | 62.3 | 33 | – | – | – |
| CSCCNC(=O)C12CCC(=O)N1c1ccc(Cl)cc1C(=O)N2 (stereo not drawn) | 315 | 46.7 | 30.1 | 6 | – | 20.3 | 44.5 | Active | – | 269 | 28.8 | 26.2 | 34.9 | – | – | – |
| CS(=O)(=O)CCNC(=O)C12CCC(=O)N1c1ccc(Cl)cc1C(=O)N2 (stereo not drawn) | 202 | 28.5 | 24.3 | – | – | 12.2 | – | – | – | 243 | 28 | 22.8 | 33.8 | – | – | – |
| COC(=O)C(CCSC)NC(=O)C12CCC(=O)N1c1ccccc1C(=O)N2C (stereo not drawn) | 200 | 27.3 | 20.2 | – | – | 20.8 | – | – | – | 252 | 6.2 | 1.3 | 3.2 | – | 3.6 | – |
| COc1cc(CNC(=O)C23CCC(=O)N2c2ccccc2C(=O)N3C)ccc1O (stereo not drawn) | 251 | – | – | – | Active | – | – | – | – | 243 | – | – | – | – | – | – |
| CSCCNC(=O)C12CCC(=O)N1c1ccccc1C(=O)N2C (stereo not drawn) | 238 | 32.1 | 24.4 | – | – | 20.7 | – | – | – | 278 | 13.7 | 7.9 | 6.6 | – | – | – |
| COC(=O)C(CCSC)NC(=O)C12CCC(=O)N1c1ccccc1C(=O)N2 (stereo not drawn) | 212 | 27.9 | 21.7 | – | – | 13.3 | – | – | – | 245 | 5 | 4.8 | 6.1 | – | – | – |
| COC(=O)C(Cc1c[nH]c2ccccc12)NC(=O)C12CCC(=O)N1c1ccccc1C(=O)N2 (stereo not drawn) | 177 | 83.1 | 45.7 | 8 | Active | 30.8 | 28.8 | Active | 43 | 230 | 74 | 89.1 | 65.8 | – | 4.1 | – |
| COc1cc(CNC(=O)C23CCC(=O)N2c2ccccc2C(=O)N3)ccc1O (stereo not drawn) | 238 | 82.4 | 56.6 | – | Active | 42.2 | – | – | 35.8 | 264 | 85.9 | 91.3 | 64.3 | 82.4 | 6.6 | 91.33 |
| O=C1NC2(C(=O)NCCc3c[nH]c4ccccc34)CCC(=O)N2c2ccc(Cl)cc21 (stereo not drawn) | 180 | 65.7 | 77.3 | 8.3 | Active | 38.5 | 16.8 | Active | 33.5 | 140 | 66.8 | 88.4 | 57.8 | – | 5.4 | – |
| CSCCNC(=O)C12CCC(=O)N1c1ccccc1C(=O)N2 (stereo not drawn) | 210 | 26.9 | 12.3 | – | – | 7.9 | – | – | – | 288 | 7.3 | 3.9 | 5.7 | – | – | – |
| CS(=O)(=O)CCNC(=O)C12CCC(=O)N1c1ccccc1C(=O)N2 (stereo not drawn) | 176 | 11.9 | 6.5 | – | – | 3.6 | – | – | – | 262 | 3.2 | 1.6 | 2 | – | 3.2 | – |
| COC(=O)C(Cc1c[nH]c2ccccc12)NC(=O)C12CCC(=O)N1c1ccccc1C(=O)N2C (stereo not drawn) | 202 | 63.7 | 40.3 | 9.8 | Active | 27.1 | 28.7 | Active | 66.2 | 282 | 65.7 | 78 | 55.7 | – | 3.1 | – |
| CC(NC(=O)C12CCC(=O)N1c1ccc(Cl)cc1C(=O)N2)c1ccccc1 (stereo not drawn) | 239 | 47.9 | 31.5 | 9.2 | Active | 16 | 29.4 | Active | 103 | 270 | 53.3 | 71.7 | 44.4 | – | 2.3 | – |
